This note sets out measurements from article PMC5908784, “Extracellular loops 2 and 3 of the calcitonin receptor selectively modify agonist binding and efficacy” (Biochemical Pharmacology, 2018).

Substitutions are numbered along the chain they refer to. Where a SMILES comes first, the peptide text is derived from it. Bridges are numbered along the chain shown (N, C = ends).

Common to all, as to test: IP1 accumulation
Assay type in all cases: cell-based
What all share (conditions): mean ± S.E.M.; for Emax: IP1 maximal response, SEM

The target of experiment [1] is T1, hCTR W361A (Homo sapiens, UniProt P30988, W361A).
T1 construct: expressed in transfected cells
T1 sequence (P30988 25-474 W361A): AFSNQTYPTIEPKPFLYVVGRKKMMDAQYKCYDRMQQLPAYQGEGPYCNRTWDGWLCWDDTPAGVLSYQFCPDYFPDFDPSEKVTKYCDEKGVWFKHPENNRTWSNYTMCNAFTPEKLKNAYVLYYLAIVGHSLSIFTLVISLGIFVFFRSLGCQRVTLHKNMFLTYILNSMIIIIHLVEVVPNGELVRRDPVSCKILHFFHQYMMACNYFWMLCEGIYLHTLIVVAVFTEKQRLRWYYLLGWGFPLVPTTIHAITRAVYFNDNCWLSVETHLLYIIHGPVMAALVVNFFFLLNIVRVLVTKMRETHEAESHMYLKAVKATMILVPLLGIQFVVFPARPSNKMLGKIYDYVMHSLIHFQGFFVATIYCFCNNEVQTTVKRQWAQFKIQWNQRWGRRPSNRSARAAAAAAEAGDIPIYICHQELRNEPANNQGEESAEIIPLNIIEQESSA
A digest of the protocol:
(§1)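 Cells bearing the mutant calcitonin receptor were plated overnight, then stimulated with increasing ligand concentrations for 60 min in the presence of LiCl. Endogenous IP1 was read by HTRF after lysis.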

Experiment [2] concerns the target T2, hCTR V293A (Homo sapiens, UniProt P30988, V293A).
T2 construct: c-Myc (N); expressed in transfected cells
T2 sequence (P30988 25-474 V293A): T1 sequence (P30988 25-474 W361A) with V269A, A337W
Put shortly: as §1

Experiment [3] concerns the target T3, hCTR K366A (Homo sapiens, UniProt P30988, K366A).
T3 construct: c-Myc (N); expressed in transfected cells
T3 sequence (P30988 25-474 K366A): T1 sequence (P30988 25-474 W361A) with A337W, K342A
Put shortly:
as §1

Experiment [4] deals with T4, hCTR T280A (Homo sapiens, UniProt P30988, T280A).
T4 construct: expressed in transfected cells
T4 sequence (P30988 25-474 T280A): T1 sequence (P30988 25-474 W361A) with T256A, A337W
Put shortly:
as §1

Experiment [5] has as its target T5, hCTR Y299A (Homo sapiens, UniProt P30988, Y299A).
T5 construct: c-Myc (N); expressed in transfected cells
T5 sequence (P30988 25-474 Y299A): T1 sequence (P30988 25-474 W361A) with Y275A, A337W
Put shortly: as §1

Where [6] appears, read: IP1, CV1-FlpIn cells, 60 min, LiCl.

As a reminder, the Emax is the maximal effect, on the per cent scale that the assay sets. Take `CC[C@H](C)[C@H](NC(=O)[C@H](C)NC(=O)[C@@H](NC(=O)[C@H](CCC(N)=O)NC(=O)[C@@H]1CCCN1C(=O)[C@H](Cc1ccccc1)NC(=O)[C@@H](NC(=O)[C@H](Cc1c[nH]cn1)NC(=O)[C@H](Cc1ccccc1)NC(=O)[C@H](CCCCN)NC(=O)[C@H](CC(N)=O)NC(=O)[C@H](Cc1ccccc1)NC(=O)[C@H](CC(=O)O)NC(=O)[C@H](CCC(N)=O)NC(=O)[C@@H](NC(=O)[C@H](Cc1ccc(O)cc1)NC(=O)[C@@H](NC(=O)CNC(=O)[C@H](CC(C)C)NC(=O)[C@H](CCSC)NC(=O)[C@@H]1CSSC[C@H](N)C(=O)NCC(=O)N[C@@H](CC(N)=O)C(=O)N[C@@H](CC(C)C)C(=O)N[C@@H](CO)C(=O)N[C@@H]([C@@H](C)O)C(=O)N1)[C@@H](C)O)[C@@H](C)O)[C@@H](C)O)[C@@H](C)O)C(=O)NCC(=O)N[C@H](C(=O)NCC(=O)N[C@@H](C)C(=O)N1CCC[C@H]1C(N)=O)C(C)C` [hCT]: the maximal response (Emax) was 89 ± 9% in experiment [1]; 87 ± 4% in experiment [2]; 121 ± 6% in experiment [3]; 79 ± 6% in experiment [4]; 34 ± 5% in experiment [5].
Usually EC50 stands for the concentration at which the effect is half-maximal. As for `CSCC[C@H](NC(=O)CNC(=O)[C@H](CO)NC(=O)[C@H](Cc1ccccc1)NC(=O)[C@H](CCCNC(=N)N)NC(=O)[C@H](Cc1c[nH]cn1)NC(=O)[C@H](Cc1ccccc1)NC(=O)[C@H](CC(N)=O)NC(=O)[C@H](CC(N)=O)NC(=O)[C@H](CC(C)C)NC(=O)[C@H](CC(N)=O)NC(=O)[C@H](CCCNC(=N)N)NC(=O)[C@H](Cc1c[nH]c2ccccc12)NC(=O)[C@H](Cc1ccc(O)cc1)NC(=O)[C@H](C)NC(=O)[C@H](CO)NC(=O)[C@H](CC(C)C)NC(=O)[C@@H](NC(=O)[C@@H]1CSSC[C@H](N)C(=O)N[C@@H](CO)C(=O)N[C@@H](CC(N)=O)C(=O)N[C@@H](CC(C)C)C(=O)N[C@@H](CO)C(=O)N[C@@H]([C@@H](C)O)C(=O)N1)C(C)C)C(=O)NCC(=O)N[C@@H](Cc1ccccc1)C(=O)NCC(=O)N1CCC[C@H]1C(=O)N[C@@H](CCC(=O)O)C(=O)N[C@H](C(=O)N1CCC[C@H]1C(N)=O)[C@@H](C)O` [pCT] (H-CSNLSTCVLSAYWRNLNNFHRFSGMGFGPETP-NH2; disulfide 1-7), the concentration giving a half-maximal response (EC50) in experiment [1] (setting [6]) is 8.32 nM; in experiment [2] (setting [6]) it was 3.24 nM; in experiment [3] (setting [6]), 1.48 nM; in experiment [4] (setting [6]), 2.45 nM; in experiment [5] (setting [6]) it was 0.417 nM. Besides, the maximal effect (Emax) in experiment [1] came to 80 ± 6%; in experiment [2] it was 112 ± 10%; in experiment [3], 91 ± 6%; in experiment [4], 100 ± 6%; in experiment [5], 52 ± 3%.
For `CC(C)C[C@H](NC(=O)[C@H](CCCCN)NC(=O)CNC(=O)[C@H](CC(C)C)NC(=O)[C@@H](NC(=O)[C@@H]1CSSC[C@H](N)C(=O)N[C@@H](CO)C(=O)N[C@@H](CC(N)=O)C(=O)N[C@@H](CC(C)C)C(=O)N[C@@H](CO)C(=O)N[C@@H]([C@@H](C)O)C(=O)N1)C(C)C)C(=O)N[C@@H](CO)C(=O)N[C@@H](CCC(N)=O)C(=O)N[C@@H](CCC(=O)O)C(=O)N[C@@H](CC(C)C)C(=O)N[C@@H](Cc1c[nH]cn1)C(=O)N[C@@H](CCCCN)C(=O)N[C@@H](CC(C)C)C(=O)N[C@@H](CCC(N)=O)C(=O)N[C@H](C(=O)N[C@@H](Cc1ccc(O)cc1)C(=O)N1CCC[C@H]1C(=O)N[C@@H](CCCNC(=N)N)C(=O)N[C@H](C(=O)N[C@@H](CC(N)=O)C(=O)N[C@H](C(=O)NCC(=O)N[C@@H](CO)C(=O)NCC(=O)N[C@H](C(=O)N1CCC[C@H]1C(N)=O)[C@@H](C)O)[C@@H](C)O)[C@@H](C)O)[C@@H](C)O` [sCT], the Emax was 108 ± 6% in experiment [1]; 109 ± 7% in experiment [2]; 93 ± 5% in experiment [3]; 119 ± 5% in experiment [4]; 54 ± 5% in experiment [5].
